Test results published in US10604529B2, “Fused imidazole compound having indoleamine 2,3-dioxygenase inhibitory activity” (SHENZHEN CHIPSCREEN BIOSCIENCES CO., LTD., priority 2016, dated 2020).

What was measured:
[1] = molecular target: T1, IFN-γ-induced IDO enzyme in HeLa cells (Homo sapiens, UniProt P14902); assay: Detection of IDO inhibitory activity at the cellular level (IFN-γ-induced HeLa cells); assay type: cell-based; conditions: tested compound 1 μM, human IFN-γ 50 ng/ml, 48 hours, read-out: IDO Inhibitory Rate (%) (1 μM)
T1 construct: HeLa cells are human cervical cancer cell lines and can up-regulate the expression of endogenous IDO enzymes; endogenous in cells; host or cells: HeLa cells stimulated with human IFN-γ
Excerpt: In the present disclosure, IFN-γ-induced IDO enzyme expression in HeLa cells were used as a model to detect the IDO enzymatic inhibitory activity of the compound at the cellular level. HeLa cells are human cervical cancer cell lines and can up-regulate the expression of endogenous IDO enzymes under the induction of human IFN-γ. The cell supernatant can be subjected to detection of the enzyme-catalyzed product kynurenine by adding the substrate L-tryptophan to the cell culture solution. […] Recombinant human IFN-γ cytokine purchased from Sangon Biotech, Phenol red-free DMEM for cell culture purchased from Gibco. […] The cells were further cultured for 48 hours and detected. (2) 200 μl of the supernatant from the culture well was pipetted, 40 μl of a pre-formulated 30% (w/v) trichloroacetic acid solution was added, allowed to react at 65° C. for 20 minutes, and then centrifuged at 12,000 rpm for 15 minutes. (3) 100 μl of the supernatant after centrifugation was pipetted and added into a 96-well plate, an equal volume of 2% p-dimethylaminobenzaldehyde in glacial acetic acid was added, and they were mixed well and allowed to stand at room temperature for 10 minutes. (4) A microplate reader (ELX800NB) was used to detect the color signal of each well, and the detection wavelength was 492 nm.

[2] = molecular target: T2, Recombinant human IDO enzyme (IDO1 enzyme) (Homo sapiens, UniProt P14902); assay: In vitro IDO enzymatic activity assay (kynurenine colour reaction, 492 nm); assay type: biochemical; conditions: tested compound concentration 200 nM; recombinant human IDO1; read-out: IDO Enzymatic Inhibition Rate (%) (200 nM)
T2 construct: purchased BPS Bioscience, USA
Experimental: The basic principle of the in vitro IDO enzymatic activity detection is to use the IDO enzyme to metabolize the substrate L-tryptophan to produce the product kynurenine in an in vitro enzyme-catalyzed reaction system. The kynurenine is yellow in color reaction with p-dimethylaminobenzaldehyde in glacial acetic acid, and the absorbance value was measured at 492 nm on a microplate reader. The concentration of the product kynurenine in the sample is calculated by comparison to a standard curve of kynurenine with a known concentration.
Recombinant human IDO enzyme (IDO1 enzyme) was purchased from BPS Bioscience, USA.
(3) Control reactions were set up at the same time the detection reaction was carried out. including 0 inhibition positive control with no tested compound added and 0 enzyme negative control with no enzyme added. All tests were run in duplicate.
(4) After the enzymatic reaction was completed, 40 μl of a pre-formulated 30% (w/v) trichloroacetic acid solution was added, and reacted at 65° C. for 20 minutes, followed by centrifugation at 12,000 rpm for 15 minutes.
(5) 100 μl of the supernatant after centrifugation was pipetted and added to a 96-well plate. An equal volume of 2% p-dimethylaminobenzaldehyde in glacial acetic acid was added, well mixed, and allowed to stand at room temperature for 10 minutes.
(6) A microplate reader (ELX800NB) was used to detect the color signal of each well with a detection wavelength of 492 nm.
In addition, the enzymatic inhibition rates were calculated for the tested compounds of different concentration gradients, and then the enzymatic half maximal inhibitory concentration (IC50) was calculated using the IC50 calculator.
According to the above-mentioned method of experiment, the compound of the present disclosure was subjected to an in vitro IDO enzymatic IC50 assay using NLG919 as a positive control compound.

T2 sequence (P14902 whole entry): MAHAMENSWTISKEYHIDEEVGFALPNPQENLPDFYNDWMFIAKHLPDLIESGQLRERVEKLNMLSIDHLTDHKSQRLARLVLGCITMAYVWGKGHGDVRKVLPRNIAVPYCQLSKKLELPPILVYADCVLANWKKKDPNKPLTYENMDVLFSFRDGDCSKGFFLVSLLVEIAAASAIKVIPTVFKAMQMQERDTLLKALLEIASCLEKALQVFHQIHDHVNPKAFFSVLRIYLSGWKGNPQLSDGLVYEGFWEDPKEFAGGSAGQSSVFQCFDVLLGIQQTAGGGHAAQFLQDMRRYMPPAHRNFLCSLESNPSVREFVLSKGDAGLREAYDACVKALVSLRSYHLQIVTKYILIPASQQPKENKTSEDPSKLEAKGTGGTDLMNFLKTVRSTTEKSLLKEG
T1 sequence (P14902 whole entry): as above

inhibition at 1 µM [1] [%]	inhibition at 0.2 µM [2] [%]	Structure (SMILES)
89	83	O=C(COc1ccc(F)cc1)N1CCC(C(O)CC2c3ccccc3-c3cncn32)CC1 (centres unmarked) [Example 43, 2-(4-fluorophenoxy)-1-(4-(1-hydroxy-2-(5H-imidazo[5,1-a]isoindol-5-yl)ethyl)piperidin-1-yl)ethyl-1-one]
93	83	Cc1ccc(OCC(=O)N2CCC(C(O)CC3c4ccccc4-c4cncn43)CC2)cc1C (centres unmarked) [Example 46, 2-(3,4-dimethylphenoxy)-1-(4-(1-hydroxy-2-(5H-imidazo[5,1-a]isoindol-5-yl)ethyl)piperidin-1-yl)ethyl-1-one]
69	66	O=C(COC1CCCCC1)N1CCC(C(O)CC2c3ccccc3-c3cncn32)CC1 (centres unmarked) [Example 50, 2-(cyclohexyloxy)-1-(4-(1-hydroxy-2-(5H-imidazo[5,1-a]isoindol-5-yl)ethyl)piperidin-1-yl)ethyl-1-one]
94	85	CCN(CC(=O)N1CCC(C(O)CC2c3ccccc3-c3cncn32)CC1)c1ccccc1 (centres unmarked) [Example 81, 2-(ethyl(phenyl)amino)-1-(4-(1-hydroxy-2-(5H-imidazo[5,1-a]isoindol-5-yl)ethyl)piperidin-1-yl)ethyl-1-one]
